Tested on: TNF-α production in LPS-stimulated human whole blood
Test: Inhibition of TNF-α production from human whole blood (hWBA)
Format: cell-based
Conditions: Homo sapiens, IC50 for TNF-α production, LPS-stimulated human whole blood; read-out: hWBA

Structure (SMILES)	IC50 [µM]
COc1ccc2c(c1)C(=O)N(C[C@]1(C#Cc3cncc(C(=O)NN)c3)NC(=O)NC1=O)C2 [Compound 2256]	1
COc1ccc2c(c1)C(=O)N(C[C@@]1(C#Cc3ccc(C(C)(C)C(N)=O)cc3)NC(=O)NC1=O)C2 [Compound 2262]	0.517
COc1ccc2c(c1)C(=O)N(C[C@@]1(C#Cc3cccnc3-c3cn[nH]c3)NC(=O)NC1=O)C2 [Compound 2266]	0.927

More lines, now with the values ahead:

IC50 [µM]	Structure (SMILES)
0.432	COc1ccc2c(c1)C(=O)N(C[C@@]1(C#Cc3cncc(C(=O)NN)c3)NC(=O)NC1=O)C2 [Compound 2255]
0.49	COc1ccc2c(c1)C(=O)N(C[C@@]1(C#Cc3ccc(C4(C)NC(=O)NC4=O)cc3C)NC(=O)NC1=O)C2 (some centres unmarked) [Compound 2257]
2.11	COc1ccc2c(c1)C(=O)N(C[C@@]1(C#Cc3cccnc3-c3cccnc3)NC(=O)NC1=O)C2 [Compound 2270]

Same assay, conditions: Homo sapiens, IC50 for inhibition of TNF-α production, LPS-stimulated human whole blood; read-out: hWBA

Structure (SMILES)	IC50 [µM]
COc1ccc2c(c1)C(=O)N(C[C@@]1(C#Cc3ccc(-n4cn[nH]c4=O)cc3)NC(=O)NC1=O)C2 [Compound 1914]	0.538
COc1ccc2c(c1)C(=O)N(C[C@@]1(C#Cc3ccc(-n4c(-c5cccnc5)n[nH]c4=O)cc3)NC(=O)NC1=O)C2 [Compound 1916]	0.258
COc1ccc2c(c1)C(=O)N(C[C@@]1(C#Cc3ccccc3C=O)NC(=O)NC1=O)C2 [Compound 1918]	0.936
CCN1CCN(C(=NO)c2cnc(C#C[C@]3(CN4Cc5ccc(OC)cc5C4=O)NC(=O)NC3=O)c(OC)c2)CC1 [Compound 1923]	0.204
COc1ccc2c(c1)C(=O)N(C[C@@]1(C#Cc3cncc(-c4ccc(C(N)=O)o4)c3)NC(=O)NC1=O)C2 [Compound 2213]	0.776
COc1ccc2c(c1)C(=O)N(C[C@@]1(C#Cc3cnc4ccccc4c3CO)NC(=O)NC1=O)C2 [Compound 2219]	8.9
COc1ccc2c(c1)C(=O)N(C[C@@]1(C#Cc3cc(C(N)=O)ccc3C)NC(=O)NC1=O)C2 [Compound 2220]	0.417
COc1ccc2c(c1)C(=O)N(C[C@@]1(C#Cc3cc(Br)ccc3O)NC(=O)NC1=O)C2 [Compound 2229]	10
COc1ccc2c(c1)C(=O)N(C[C@@]1(C#Cc3ccc(OC)nc3OC)NC(=O)NC1=O)C2 [Compound 2230]	1
COc1ccc2c(c1)C(=O)N(C[C@@]1(C#Cc3cnc(C)nc3O)NC(=O)NC1=O)C2 [Compound 2231]	1.13
COc1ccc2c(c1)C(=O)N(C[C@@]1(C#Cc3cncc(-c4cc[nH]n4)c3)NC(=O)NC1=O)C2 [Compound 2234]	0.678

Now from value to compound:

IC50 [µM]	Structure (SMILES)
0.303	COc1ccc2c(c1F)C(=O)N(C[C@@]1(C#Cc3ccc(C(CN)N4CCC(NC(=O)OC(C)(C)C)C4)cc3)NC(=O)NC1=O)C2 (some centres unmarked) [Compound 1702]
0.078	COc1ccc2c(c1)C(=O)N(C[C@@]1(C#Cc3ccc(NC(=O)C4CCN(C)CC4)cc3)NC(=O)NC1=O)C2 [Compound 1909]
1.2	COc1ccc2c(c1)C(=O)N(C[C@@]1(C#Cc3ccc(C(c4ccc[nH]4)c4ccc[nH]4)cc3)NC(=O)NC1=O)C2 [Compound 2201]
1.6	COc1ccc2c(c1)C(=O)N(C[C@@]1(C#Cc3cnc(N)nc3N)NC(=O)NC1=O)C2 [Compound 2209]
0.93	COc1ccc2c(c1)C(=O)N(C[C@@]1(C#Cc3ccc(CCNC(=O)C(F)(F)F)s3)NC(=O)NC1=O)C2 [Compound 2221]

Same assay, conditions: IC50 for TNF-α production, LPS-stimulated human whole blood; read-out: hWBA

Structure (SMILES)	IC50 [µM]
COc1ccc2c(c1)C(=O)N(C[C@@]1(C#Cc3ccc(C4(C(N)=O)CC4)cc3)NC(=O)NC1=O)C2 [Compound 2260]	0.227
CNC(=O)C1(c2ccc(C#C[C@]3(CN4Cc5ccc(OC)cc5C4=O)NC(=O)NC3=O)cc2)CC1 [Compound 2261]	0.443

The next lines start with the values.

IC50 [µM]	Structure (SMILES)
0.713	COc1ccc2c(c1)C(=O)N(C[C@@]1(C#Cc3cncc(-c4noc(C(N)=O)n4)c3)NC(=O)NC1=O)C2 [Compound 2254]
2.54	COc1ccc2c(c1)C(=O)N(C[C@@]1(C#Cc3cccnc3-c3c(C)nn(C)c3C)NC(=O)NC1=O)C2 [Compound 2264]

Same assay, conditions: IC50 for inhibition of TNF-α production, LPS-stimulated human whole blood; read-out: hWBA

Structure (SMILES)	IC50 [µM]
COc1ccc2c(c1F)C(=O)N(C[C@@]1(C#Cc3ccc(C(CN)N4CCC(N)C4)cc3)NC(=O)NC1=O)C2 (some centres unmarked) [Compound 1704]	0.109
COc1ccc2c(c1F)C(=O)N(C[C@@]1(C#Cc3ccc(N4CCNCC4)cc3)NC(=O)NC1=O)C2 [Compound 1706]	0.118
CCN1CCN(C(=O)C2CCC(=O)N2c2ccc(C#C[C@]3(CN4Cc5ccc(OC)cc5C4=O)NC(=O)NC3=O)cc2)CC1 (some centres unmarked) [Compound 1901]	0.113
COc1ccc2c(c1)C(=O)N(C[C@@]1(C#Cc3ccc(N4C(=O)CCC4C(=O)N4CCN(C)CC4)cc3)NC(=O)NC1=O)C2 (some centres unmarked) [Compound 1905]	0.416
COc1ccc2c(c1F)C(=O)N(C[C@@]1(C#Cc3cncc(NC(=O)C4CCN(C)CC4)c3)NC(=O)NC1=O)C2 [Compound 1907]	0.086
COc1ccc2c(c1)C(=O)N(C[C@@]1(C#Cc3cncc(NC(=O)C4CCN(C)CC4)c3)NC(=O)NC1=O)C2 [Compound 1908]	0.299
COc1ccc2c(c1)C(=O)N(C[C@@]1(C#Cc3ccc(-c4nnc(N)o4)cc3)NC(=O)NC1=O)C2 [Compound 1919]	0.244
COc1ccc2c(c1)C(=O)N(C[C@@]1(C#Cc3nc(N)ccc3O)NC(=O)NC1=O)C2 [Compound 1921]	0.808
COc1ccc2c(c1)C(=O)N(C[C@@]1(C#Cc3nc(-c4cccc(O)c4)ccc3OC)NC(=O)NC1=O)C2 [Compound 1922]	9.91
COc1ccc2c(c1)C(=O)N(C[C@@]1(C#Cc3ccc(N(c4cccnc4)C4CCNCC4)nc3)NC(=O)NC1=O)C2 [Compound 2200]	0.43
COc1ccc2c(c1)C(=O)N(C[C@@]1(C#Cc3cncc(-c4cn[nH]c4)c3)NC(=O)NC1=O)C2 [Compound 2207]	0.26
COc1ccc2c(c1)C(=O)N(C[C@@]1(C#Cc3ccc(C4(CN5Cc6cc(O)ccc6C5=O)NC(=O)NC4=O)cc3)NC(=O)NC1=O)C2 (some centres unmarked) [Compound 2216]	0.419
COc1ccc2c(c1)C(=O)N(C[C@@]1(C#Cc3ccc(C4=NCCN4)cc3)NC(=O)NC1=O)C2 [Compound 2222]	0.227
COc1ccc2c(c1)C(=O)N(C[C@@]1(C#Cc3ccc(-c4nnc[nH]4)cc3OC)NC(=O)NC1=O)C2 [Compound 2223]	0.131
COc1ccc2c(c1)C(=O)N(C[C@@]1(C#Cc3ccc(-n4cncn4)cc3)NC(=O)NC1=O)C2 [Compound 2228]	1.14
COc1ccc2c(c1)C(=O)N(C[C@@]1(C#Cc3c(C)ncc(C(=O)O)c3O)NC(=O)NC1=O)C2 [Compound 2232]	0.699
COc1ccc2c(c1)C(=O)N(C[C@@]1(C#Cc3cncc(-c4csc(N)n4)c3)NC(=O)NC1=O)C2 [Compound 2233]	0.811
COc1ccc2c(c1)C(=O)N(C[C@@]1(C#Cc3ccc4[nH]nc(N)c4c3)NC(=O)NC1=O)C2 [Compound 2237]	0.52
CCN1CCN(c2n[nH]c3ccc(C#C[C@]4(CN5Cc6ccc(OC)cc6C5=O)NC(=O)NC4=O)cc23)CC1 [Compound 2238]	0.422
COc1ccc2c(c1)C(=O)N(C[C@@]1(C#Cc3cncc(NC(C)=O)c3)NC(=O)NC1=O)C2 [Compound 2242]	0.444
CCOC(=O)Nc1cncc(C#C[C@]2(CN3Cc4ccc(OC)cc4C3=O)NC(=O)NC2=O)c1 [Compound 2243]	1.23
COc1ccc2c(c1)C(=O)N(C[C@@]1(C#Cc3cnc4nc(O)oc4c3)NC(=O)NC1=O)C2 [Compound 2244]	0.574

More lines, now with the values ahead:

IC50 [µM]	Structure (SMILES)
0.316	COc1ccc2c(c1)C(=O)N(C[C@@]1(C#Cc3ccc(C(CN)N4CCC(NC(=O)OC(C)(C)C)C4)cc3)NC(=O)NC1=O)C2 (some centres unmarked) [Compound 1703]
0.233	COc1ccc2c(c1)C(=O)N(C[C@@]1(C#Cc3ccc(C(CN)N4CCC(N)C4)cc3)NC(=O)NC1=O)C2 (some centres unmarked) [Compound 1705]
0.374	COc1ccc2c(c1)C(=O)N(C[C@@]1(C#Cc3cncc(-c4ccc(O)c(-c5cn[nH]c5)n4)c3)NC(=O)NC1=O)C2 [Compound 1707]
2.19	COc1ccc2c(c1)C(=O)N(C[C@@]1(C#Cc3nc(-c4n[nH]c(=O)n4C4CCN(C)CC4)ccc3OC)NC(=O)NC1=O)C2 [Compound 1900]
0.152	CCN1CCN(C(=O)C2CCC(=O)N2c2ccc(C#C[C@]3(CN4Cc5ccc(OC)c(F)c5C4=O)NC(=O)NC3=O)cc2)CC1 (some centres unmarked) [Compound 1903]
0.578	COc1ccc2c(c1)C(=O)N(C[C@@]1(C#Cc3ccc(N4C(=O)CCC4(C(=O)O)C(C)(C)O)nc3)NC(=O)NC1=O)C2 (some centres unmarked) [Compound 1906]
0.243	COc1ccc2c(c1)C(=O)N(C[C@@]1(C#Cc3ccc(-n4c(C)n[nH]c4=O)cc3)NC(=O)NC1=O)C2 [Compound 1915]
3.36	CCN1CCN(C(=O)C2CCC(=O)N2c2ccc(OC)c(C#C[C@]3(CN4Cc5ccc(OC)cc5C4=O)NC(=O)NC3=O)n2)CC1 (some centres unmarked) [Compound 1917]
0.269	CCNc1nnc(-c2ccc(C#C[C@]3(CN4Cc5ccc(OC)cc5C4=O)NC(=O)NC3=O)cc2)o1 [Compound 1920]
0.515	COc1ccc2c(c1)C(=O)N(C[C@@]1(C#Cc3ncc(C(=NO)N4CCN(c5cnccn5)CC4)cc3OC)NC(=O)NC1=O)C2 [Compound 1924]
0.219	COc1ccc2c(c1)C(=O)N(C[C@@]1(C#Cc3ccc(CCN)cc3)NC(=O)NC1=O)C2 [Compound 2202]
7.27	COc1ccc2c(c1)C(=O)N(C[C@@]1(C#Cc3nc(N4CCN(c5ccncc5)CC4)ccc3OC)NC(=O)NC1=O)C2 [Compound 2205]
0.361	COc1ccc2c(c1)C(=O)N(C[C@@]1(C#Cc3cncc(-c4ccc(C(N)=O)cc4)c3)NC(=O)NC1=O)C2 [Compound 2208]
1.01	COc1ccc2c(c1)C(=O)N(C[C@@]1(C#Cc3cnc(N4CCC(=O)CC4)nc3N)NC(=O)NC1=O)C2 [Compound 2210]
1	COc1ccc2c(c1)C(=O)N(C[C@@]1(C#Cc3ccc(N4CCC(=O)CC4)nc3)NC(=O)NC1=O)C2 [Compound 2211]
0.849	COc1ccc2c(c1)C(=O)N(C[C@@]1(C#Cc3ccc([C@@]4(CN5Cc6ccc(OC)cc6C5=O)NC(=O)NC4=O)cc3)NC(=O)NC1=O)C2 [Compound 2217]
0.04	COc1ccc2c(c1)C(=O)N(C[C@@]1(C#Cc3ccc(C(=NO)C4CCN(C)CC4)cc3)NC(=O)NC1=O)C2 [Compound 2246]

From patent US8541572B2
